PMC6273820, “Antimicrobial Activity and Stability of Short and Long Based Arachnid Synthetic Peptides in the Presence of Commercial Antibiotics” (Molecules, 2016)
Converted amounts (≈) assume the structure as drawn. Read-outs that look alike come from different tables or passages of the source. Where no end group is shown, it is not given here.

Experiments:
[1] = test system: Escherichia coli ATCC 25922; experiment: microbe, parasite or virus in culture; format: cell-based; conditions: for MIC: Escherichia coli, read-out: Minimal Inhibitory Concentration, E. coli
Experimental: It was determined using the broth microdilution assay in accordance with the procedures from the Clinical and Laboratory Standards Institute. For broth microdilution assays, pathogenic bacteria, such as Escherichia coli ATCC 25922, Staphylococcus aureus ATCC 25923, Pseudomonas aeruginosa ATCC 27853 and Klebsiella pneumoniae ST258, were cultured in Mueller-Hinton broth (MHB) at 37 °C until an end point between of 0.08 and 0.13 units of absorbance at 625 nm and diluted 1:100 in MHB (ca. […]). Fifty microliters of this bacterial suspension was dispensed into each well of a 96-well microtiter Costar® culture plates (Sigma Aldrich) having 50 µL of MHB containing a proper concentration of pure AMPs, antibiotics or the mixture of either of the AMPs with either of the antibiotics used. Dilutions of peptides and antibiotics were made manually with two-fold dilutions. […]

[2] = test system: Pseudomonas aeruginosa ATCC 27853; experiment: microbe, parasite or virus in culture; format: cell-based; conditions: for MIC: Pseudomonas aeruginosa, read-out: Minimal Inhibitory Concentration, P. aureginosa
Experimental: (§1) It was determined using the broth microdilution assay in accordance with the procedures from the Clinical and Laboratory Standards Institute. For broth microdilution assays, pathogenic bacteria, such as Escherichia coli ATCC 25922, Staphylococcus aureus ATCC 25923, Pseudomonas aeruginosa ATCC 27853 and Klebsiella pneumoniae ST258, were cultured in Mueller-Hinton broth (MHB) at 37 °C until an end point between of 0.08 and 0.13 units of absorbance at 625 nm and diluted 1:100 in MHB (ca. […]). Fifty microliters of this bacterial suspension was dispensed into each well of a 96-well microtiter Costar® culture plates (Sigma Aldrich) having 50 µL of MHB containing a proper concentration of pure AMPs, antibiotics or the mixture of either of the AMPs with either of the antibiotics used. Dilutions of peptides and antibiotics were made manually with two-fold dilutions.
(§2) E. coli, S. aureus, P. aeruginosa and K. pneumoniae were grown in the presence of each of the four AMPs, and in the presence of each of the eight commercial antibiotics, which were Levofloxacin, Trimethoprim, Sulfamethoxazole, Azithromycin, Amoxicillin, Ceftriaxone, Gentamicin and Vancomycin, and in combinations of AMPs and the antibiotics. That is, the antimicrobial capacity of each AMP (50, 25, 12.5 and 6.2 µg/ mL) in combination with each antibiotic agent (50, 25, 12.5, 3.2, 1.6 and 0 µg/ mL) was measured as described above. For evaluation of the effect of the mixtures, the fractional inhibitory concentration (FIC) was calculated for each antibiotic in each combination. The following formulas were used to calculate the FIC index: FIC of AMP = MIC of AMP in combination with Antibiotic/MIC of AMP alone; FIC of Antibiotic = MIC of Antibiotic in combination with AMP/MIC of Antibiotic alone, and FIC index = FIC of AMP + FIC of Antibiotic. Synergy was defined as an FIC index of <0.5. Additive was defined as an FIC index of >0.5 but of <4, and finally antagonism was defined as an FIC index of >4.

[3] = test system: Staphylococcus aureus ATCC 25923; experiment: microbe, parasite or virus in culture; format: cell-based; conditions: for MIC: Staphylococcus aureus, read-out: Minimal Inhibitory Concentration, S. aureus
Experimental: as §1, §2

[4] = test system: Klebsiella pneumoniae ST258; experiment: microbe, parasite or virus in culture; format: cell-based; conditions: for MIC: Klebsiella pneumoniae, ST258, 18 h
Experimental: as §1
as §2, with “That” for “E. coli, S. aureus, P. aeruginosa and K. pneumoniae were grown in the presence of each of the four AMPs, and in the presence of each of the eight commercial antibiotics, which were Levofloxacin, Trimethoprim, Sulfamethoxazole, Azithromycin, Amoxicillin, Ceftriaxone, Gentamicin and Vancomycin, and in combinations of AMPs and the antibiotics. That”

[5] = Stability in human blood plasma; format: in vitro ADME; conditions: 50 μg/mL; for Peptide found after incubation in human blood plasma: 12 h at 37 °C, extraction, reverse phase HPLC at 230 nm, ESI-MS
Experimental: (§3) The four synthetic peptides were subjected to incubation in human blood plasma or in the supernatant of S. aureus and P. aeruginosa growth. The AMPs were diluted in human blood plasma or in the supernatant of bacterial growth (50 μg/mL) and incubated at 37 °C for 12 h. After peptide extraction, the AMPs were separated by reverse phase HPLC using a C18 column (Vydac 218 TP54, Grace Co.) and a linear gradient of acetonitrile in 0.1% aqueous TFA from 0 to 60% in 60 min at a flow rate of 1 mL/min. Effluent absorbance was monitored at 230 nm. Peptide fractions were dried under vacuum, resuspended and analyzed by ESI-MS to confirm their molecular masses.

[6] = Stability in supernatant of S. aureus growth; format: in vitro ADME, Staphylococcus aureus; conditions: 50 μg/mL, 12 h at 37 °C, extraction, reverse phase HPLC at 230 nm
Experimental: as §3

[7] = Stability in supernatant of P. aeruginosa growth; format: in vitro ADME, Pseudomonas aeruginosa; conditions: 50 μg/mL, 12 h at 37 °C, extraction, reverse phase HPLC at 230 nm
Experimental: as §3

[8] = cited from earlier work
Excerpt: Concerning AMPs, several physicochemical characteristics have been associated with the biological activity of them. Those that are relevant include hydrophobicity, the helical hydrophobic moment, as well as the size and the net charge of the peptide. However, no particular value relating to any of these characteristics was solely sufficient to correlate with the antimicrobial activity of the AMPs tested. In this case, however, the larger peptides FA1 and Pin2[G] were the AMPs that manifested optimum biological performance. Nevertheless, a fine balance in terms of physicochemical pr ...

[9] = read-out: Minimal Inhibitory Concentration, K. pneumoniae
[10] = dose-response in Muller-Hinton broth, Figure 3D
[11] = ATCC25922, broth microdilution (CLSI), Mueller-Hinton broth, 18 h at 37 °C, A625nm, peptides n = 8
[12] = ATCC27853, broth microdilution (CLSI), Mueller-Hinton broth, 18 h at 37 °C, A625nm, peptides n = 8
[13] = ATCC25923, broth microdilution (CLSI), Mueller-Hinton broth, 18 h at 37 °C, A625nm, peptides n = 8
[14] = broth microdilution (CLSI), Mueller-Hinton broth, 18 h at 37 °C, A625nm, peptides n = 8

Row | Compound | MIC ([1]; ATCC25922, 18 h) [µg/mL] | Susceptibility of P. aeruginosa in words [2] | MIC ([2]; ATCC27853, 18 h) [µg/mL] | MIC ([3]; ATCC25923, 18 h) [µg/mL] | MIC ([4]; read-out: Antibiotic (MIC)) [µg/mL] | MIC [4, 9] [µg/mL] | Antibiotic concentration in whose presence K. pneumoniae could grow (up to) [4, 10] | MIC [1, 11] [µg/mL] | MIC [2, 12] [µg/mL] | MIC [3, 13] [µg/mL] | also measured
1 | CC1(C)S[C@@H]2[C@H](NC(=O)[C@H](N)c3ccc(O)cc3)C(=O)N2[C@H]1C(=O)O [Amoxicillin] | 12.5 (≈ 34.2 µM) | resistant | > 50 | 1.5 | > 50 | > 50 | up to 50 µg/mL | – | – | – | –
2 | CC[C@H]1OC(=O)[C@H](C)[C@@H](O[C@H]2C[C@@](C)(OC)[C@@H](O)[C@H](C)O2)[C@H](C)[C@@H](O[C@@H]2O[C@H](C)C[C@H](N(C)C)[C@H]2O)[C@](C)(O)C[C@@H](C)CN(C)[C@H](C)[C@@H](O)[C@]1(C)O [Azithromycin] | – | – | – | – | > 50 | > 50 | up to 50 µg/mL | 1.5 (≈ 2 µM) | 12.5 | 3.1 | –
3 | CO/N=C(\C(=O)N[C@@H]1C(=O)N2C(C(=O)O)=C(CSc3nc(=O)c(=O)[nH]n3C)CS[C@H]12)c1csc(N)n1 [Ceftriaxone] | – | – | – | – | > 50 | > 50 | up to 50 µg/mL | 1.5 (≈ 2.7 µM) | 12.5 | 1.5 | –
4 | CNC(C)C1CCC(N)C(OC2C(N)CC(N)C(OC3OCC(C)(O)C(NC)C3O)C2O)O1 (stereo not shown) [Gentamicin] | – | – | – | – | – | 12.5 | – | 1.5 (≈ 3.14 µM) | 1.5 | 1.5 | MIC ([4]; antibiotic alone against K. pneumoniae, based on Figure 3, read-out: Antibiotic (MIC)): 12.5 µg/mL; Susceptibility of K. pneumoniae in words [4, 10]: susceptible
5 | C[C@H]1COc2c(N3CCN(C)CC3)c(F)cc3c(=O)c(C(=O)O)cn1c23 [Levofloxacin] | – | – | – | – | 50 | 50 | up to 25 µg/mL | 1.5 (≈ 4.15 µM) | 1.5 | 1.5 | –
6 | Cc1cc(NS(=O)(=O)c2ccc(N)cc2)no1 [Sulfamethoxazole] | > 50 | resistant | > 50 | > 50 | > 50 | > 50 | – | – | – | – | Susceptibility of E. coli in words [1]: to some extent; Susceptibility of S. aureus in words [3]: resistance
7 | COc1cc(Cc2cnc(N)nc2N)cc(OC)c1OC [Trimethoprim] | 1.5 (≈ 5.17 µM) | resistant | > 50 | 1.5 | > 50 | > 50 | up to 50 µg/mL | – | – | – | –
8 | CN[C@H](CC(C)C)C(=O)N[C@H]1C(=O)N[C@@H](CC(N)=O)C(=O)N[C@H]2C(=O)N[C@H]3C(=O)N[C@H](C(=O)N[C@H](C(=O)O)c4cc(O)cc(O)c4-c4cc3ccc4O)[C@H](O)c3ccc(c(Cl)c3)Oc3cc2cc(c3O[C@@H]2O[C@H](CO)[C@@H](O)[C@H](O)[C@H]2O[C@H]2C[C@](C)(N)[C@H](O)[C@H](C)O2)Oc2ccc(cc2Cl)[C@H]1O [Vancomycin] | – | – | – | – | > 50 | > 50 | up to 50 µg/mL | > 50 | > 50 | 1.5 | Susceptibility of E. coli in words ([1]; dose-response in Muller-Hinton broth, Figure 3C): resistance; Susceptibility of P. aeruginosa in words ([2]; dose-response in Muller-Hinton broth, Figure 3B): resistant
9 | FWGALAKGALKLIGSLFSSFSKKD [Pin2[G]] | – | – | – | – | – | – | – | – | – | – | Minimal Inhibitory Concentration, E. coli [1, 14]: 50 µg/mL; Minimal Inhibitory Concentration, P. aureginosa [2, 14]: >50 µg/mL; Minimal Inhibitory Concentration, S. aureus [3, 14]: 25 µg/mL; Peptide (MIC) ([4]; peptide alone against K. pneumoniae, based on Figure 2): >50 µg/mL; Peptide found after incubation in human blood plasma [5]: One quarter; Stability in supernatants of S. aureus [6]: not cleaved; Stability in supernatants of P. aeruginosa [7]: not cleaved; hemolytic activity [8]: 1.4 µM
10 | FWGLKGLKKFSKKL [Pin2[14]] | – | – | – | – | – | – | – | – | – | – | Minimal Inhibitory Concentration, E. coli [1, 14]: >50 µg/mL; Minimal Inhibitory Concentration, P. aureginosa [2, 14]: >50 µg/mL; Minimal Inhibitory Concentration, S. aureus [3, 14]: >50 µg/mL; Minimal Inhibitory Concentration, K. pneumoniae [4, 14]: >50 µg/mL; Peptide found after incubation in human blood plasma [5]: not found; Recovery after interaction with human plasma, first few minutes of dilution ([5]; extracted after the first few minutes of dilution, reverse phase HPLC): none; Stability in supernatants of S. aureus [6]: not cleaved; hemolytic activity [8]: 418 µM
